What was measured:
[1] = biological target: Rod cGMP-specific 3',5'-cyclic phosphodiesterase alpha/beta (Homo sapiens, UniProt P16499+P35913); assay: PDE Enzyme Assays Using [3H]cGMP as Substrate: The following phosphodiesterase activities are measured using [3H]cGMP as reaction substrate: human PDE6A/6B. The catalytic active form of human PDE6 is a dimer composed of a α (human PDE6A) and β subunits (human PDE6B). The dimer of human PDE6A/6B is produced by the coexpression and purification strategy, using two purification steps, i.e., NiNTA and anti-FLAG Sepharose chromatography. The assay buffer is prepared to give a final concentration in the assay of 50 mM Tris-HCl, 8.3 mM MgCl2, 1.7 mM EDTA and 0.1% Bovine serum albumin at pH 7.5. The final enzyme concentration is 5 nM. The reactions are started by addition of the substrate, [3H]cGMP, to give a final concentration of 80 nM.; format: protein-complex assay
[2] = biological target: Dual specificity calcium/calmodulin-dependent 3',5'-cyclic nucleotide phosphodiesterase 1A (Homo sapiens, UniProt P54750); assay: Ca2+-Calmodulin Dependent PDE Enzyme Assays: PDE1B, PDE1A, and PDE1C are cloned and purified following standard protein generation procedures. The assay buffer is prepared to give a final concentration in the assay of 50 mM Tris-HCl, 50 mM MgCl2, 4 mM CaCl2, 0.1% Bovine serum albumin and 6 U/ml Calmodulin in water, at pH 7.5. The final enzyme concentration is 0.25, 0.074 and 0.0012 nM, for PDE1A, PDE1B and PDE1C respectively. The reactions are started by addition of the substrate, [3H]cAMP, to give a final concentration of 47 nM.
[3] = biological target: cGMP-inhibited 3',5'-cyclic phosphodiesterase 3A (Homo sapiens, UniProt Q14432); assay: PDE Enzyme Assays Using [3H]cAMP as Substrate: The following phosphodiesterase activities are measured using [3H]cAMP as reaction substrate: human PDE3A (catalytic domain) and human PDE4D. Both enzymes are cloned and purified following standard procedures. The assay buffer is prepared to give a final concentration in the assay of 50 mM Tris-HCl, 8.3 mM MgCl2, 1.7 mM ethylenediaminetetraacetic acid (EDTA) and 0.1% Bovine serum albumin at pH 7.5. Final enzyme concentrations are 0.008 and 0.021 nM for PDE3A and PDE4D, respectively. Reactions are started by addition of the substrate, [3H]cAMP, to give a final concentration of 47 nM.
Chain of cGMP-inhibited 3',5'-cyclic phosphodiesterase 3A (Q14432 whole entry, the tested form may be a part): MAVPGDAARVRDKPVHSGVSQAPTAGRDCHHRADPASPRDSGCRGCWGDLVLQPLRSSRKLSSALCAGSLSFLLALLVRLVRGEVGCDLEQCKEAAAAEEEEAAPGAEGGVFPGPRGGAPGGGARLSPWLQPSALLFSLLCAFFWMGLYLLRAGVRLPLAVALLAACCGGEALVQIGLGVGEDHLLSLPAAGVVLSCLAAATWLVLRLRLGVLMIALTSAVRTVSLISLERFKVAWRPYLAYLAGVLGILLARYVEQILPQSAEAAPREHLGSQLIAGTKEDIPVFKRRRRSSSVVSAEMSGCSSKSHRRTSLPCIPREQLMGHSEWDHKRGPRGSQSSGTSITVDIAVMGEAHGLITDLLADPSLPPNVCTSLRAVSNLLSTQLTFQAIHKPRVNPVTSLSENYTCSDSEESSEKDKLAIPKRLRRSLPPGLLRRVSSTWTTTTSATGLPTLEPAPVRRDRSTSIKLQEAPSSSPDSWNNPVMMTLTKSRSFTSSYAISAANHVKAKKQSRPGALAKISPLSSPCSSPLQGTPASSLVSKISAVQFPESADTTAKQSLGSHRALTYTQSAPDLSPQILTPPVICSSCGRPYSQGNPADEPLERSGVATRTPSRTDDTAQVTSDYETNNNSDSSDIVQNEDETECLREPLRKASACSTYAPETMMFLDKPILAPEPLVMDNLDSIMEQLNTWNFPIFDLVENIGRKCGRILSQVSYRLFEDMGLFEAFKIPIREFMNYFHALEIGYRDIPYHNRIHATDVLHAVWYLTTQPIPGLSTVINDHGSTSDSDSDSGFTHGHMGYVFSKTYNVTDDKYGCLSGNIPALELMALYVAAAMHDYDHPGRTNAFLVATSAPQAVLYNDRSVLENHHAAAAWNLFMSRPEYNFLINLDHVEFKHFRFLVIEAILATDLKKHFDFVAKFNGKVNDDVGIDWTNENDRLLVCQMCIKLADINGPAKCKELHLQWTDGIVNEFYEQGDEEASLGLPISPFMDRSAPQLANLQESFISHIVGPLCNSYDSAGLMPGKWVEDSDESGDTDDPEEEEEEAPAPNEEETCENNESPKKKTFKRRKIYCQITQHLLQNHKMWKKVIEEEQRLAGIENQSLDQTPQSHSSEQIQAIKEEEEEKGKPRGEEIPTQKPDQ

Chain of Dual specificity calcium/calmodulin-dependent 3',5'-cyclic nucleotide phosphodiesterase 1A (P54750 whole entry): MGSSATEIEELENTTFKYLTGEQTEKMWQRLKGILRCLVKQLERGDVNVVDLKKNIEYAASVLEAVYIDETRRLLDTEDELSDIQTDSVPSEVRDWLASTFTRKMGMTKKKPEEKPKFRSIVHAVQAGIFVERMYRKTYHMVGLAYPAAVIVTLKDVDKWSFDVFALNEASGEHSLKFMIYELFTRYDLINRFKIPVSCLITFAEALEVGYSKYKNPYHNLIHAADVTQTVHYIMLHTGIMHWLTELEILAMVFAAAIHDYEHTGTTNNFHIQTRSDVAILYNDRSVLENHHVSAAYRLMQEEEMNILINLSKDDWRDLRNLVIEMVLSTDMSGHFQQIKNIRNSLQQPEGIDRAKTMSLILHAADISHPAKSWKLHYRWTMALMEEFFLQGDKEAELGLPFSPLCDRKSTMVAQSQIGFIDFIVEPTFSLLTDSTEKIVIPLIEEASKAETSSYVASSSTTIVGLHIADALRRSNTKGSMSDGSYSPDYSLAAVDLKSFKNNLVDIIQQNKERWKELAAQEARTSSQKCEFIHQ
Chain of Rod cGMP-specific 3',5'-cyclic phosphodiesterase alpha/beta (P35913 whole entry): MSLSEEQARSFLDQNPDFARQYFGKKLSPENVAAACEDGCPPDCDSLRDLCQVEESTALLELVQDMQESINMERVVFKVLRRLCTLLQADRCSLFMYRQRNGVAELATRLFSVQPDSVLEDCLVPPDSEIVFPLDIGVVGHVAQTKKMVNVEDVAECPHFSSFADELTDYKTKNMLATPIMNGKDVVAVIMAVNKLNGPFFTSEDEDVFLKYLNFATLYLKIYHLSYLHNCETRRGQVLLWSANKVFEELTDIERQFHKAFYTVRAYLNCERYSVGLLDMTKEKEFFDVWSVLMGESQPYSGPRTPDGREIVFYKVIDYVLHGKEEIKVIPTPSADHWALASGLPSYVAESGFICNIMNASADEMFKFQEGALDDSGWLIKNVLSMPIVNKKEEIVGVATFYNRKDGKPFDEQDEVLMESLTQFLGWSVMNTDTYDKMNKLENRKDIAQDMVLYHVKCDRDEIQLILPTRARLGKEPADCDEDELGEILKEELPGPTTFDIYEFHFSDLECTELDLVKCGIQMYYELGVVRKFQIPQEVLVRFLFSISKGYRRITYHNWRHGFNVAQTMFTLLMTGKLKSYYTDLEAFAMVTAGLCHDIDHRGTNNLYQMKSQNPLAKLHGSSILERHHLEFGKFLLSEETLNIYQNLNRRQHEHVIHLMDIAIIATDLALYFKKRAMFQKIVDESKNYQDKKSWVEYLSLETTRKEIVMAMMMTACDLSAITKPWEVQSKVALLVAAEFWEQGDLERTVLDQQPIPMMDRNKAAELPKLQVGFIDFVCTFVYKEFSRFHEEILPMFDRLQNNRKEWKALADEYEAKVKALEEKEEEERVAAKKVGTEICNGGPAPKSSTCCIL
Chain of Rod cGMP-specific 3',5'-cyclic phosphodiesterase alpha/beta (P16499 whole entry): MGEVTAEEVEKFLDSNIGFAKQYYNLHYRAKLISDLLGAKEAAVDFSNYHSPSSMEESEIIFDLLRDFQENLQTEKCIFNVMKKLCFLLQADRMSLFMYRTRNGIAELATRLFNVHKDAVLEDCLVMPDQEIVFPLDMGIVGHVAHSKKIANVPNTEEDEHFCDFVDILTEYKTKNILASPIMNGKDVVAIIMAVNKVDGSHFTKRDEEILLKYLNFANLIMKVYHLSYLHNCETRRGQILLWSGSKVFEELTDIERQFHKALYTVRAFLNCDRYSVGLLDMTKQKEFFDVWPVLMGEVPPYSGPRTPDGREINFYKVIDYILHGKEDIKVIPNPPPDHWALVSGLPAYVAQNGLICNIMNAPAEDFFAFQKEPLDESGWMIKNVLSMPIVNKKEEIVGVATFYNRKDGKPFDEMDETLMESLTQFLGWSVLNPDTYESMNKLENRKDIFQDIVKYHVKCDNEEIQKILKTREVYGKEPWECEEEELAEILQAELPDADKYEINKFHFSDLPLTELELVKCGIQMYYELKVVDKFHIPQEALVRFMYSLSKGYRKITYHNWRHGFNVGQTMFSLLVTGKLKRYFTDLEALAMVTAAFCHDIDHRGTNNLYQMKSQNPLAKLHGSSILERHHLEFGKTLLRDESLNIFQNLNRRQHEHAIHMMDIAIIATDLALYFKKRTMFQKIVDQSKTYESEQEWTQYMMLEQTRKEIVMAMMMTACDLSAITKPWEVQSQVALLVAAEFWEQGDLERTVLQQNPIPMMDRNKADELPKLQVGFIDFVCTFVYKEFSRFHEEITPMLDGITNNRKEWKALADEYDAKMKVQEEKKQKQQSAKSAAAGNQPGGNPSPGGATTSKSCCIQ

| IC50 [1] [nM] | IC50 [2] [nM] | IC50 [3] [nM] | SMILES |
| --- | --- | --- | --- |
| 3850 | 0.996 | > 100000 | CCCCn1c(=O)c2nnc(C3(C4CC4)CC3)n2c2ncc(CO)cc21 |
| 982 | 0.214 | > 100000 | CCCCn1c(=O)c2nnc(C3(C4CC4)CC3)n2c2ncc(CC)cc21 |

— ChEMBL document CHEMBL5728860, “[1,2,4]Triazolo[4,3-A]pyrazin-6(5H)-one derivatives” (2021)
